According to patent US7629150B2, “Transformed cell harboring DNA or RNA encoding sugar chain synthesizing agent having β1,3-N-acetylglucosaminyltransferase activity” (Kyowa Hakko Kirin Co., Ltd., priority 2000, dated 2009):

Target: T1, G6 polypeptide (Homo sapiens, UniProt Q9BYG0)
T1 construct: In order to obtain a DNA encoding the full-length G6 polypeptide, PCR was carried out; expressed in transfected cells; Triton X-100 cell extract
T1 sequence (Q9BYG0 1-378): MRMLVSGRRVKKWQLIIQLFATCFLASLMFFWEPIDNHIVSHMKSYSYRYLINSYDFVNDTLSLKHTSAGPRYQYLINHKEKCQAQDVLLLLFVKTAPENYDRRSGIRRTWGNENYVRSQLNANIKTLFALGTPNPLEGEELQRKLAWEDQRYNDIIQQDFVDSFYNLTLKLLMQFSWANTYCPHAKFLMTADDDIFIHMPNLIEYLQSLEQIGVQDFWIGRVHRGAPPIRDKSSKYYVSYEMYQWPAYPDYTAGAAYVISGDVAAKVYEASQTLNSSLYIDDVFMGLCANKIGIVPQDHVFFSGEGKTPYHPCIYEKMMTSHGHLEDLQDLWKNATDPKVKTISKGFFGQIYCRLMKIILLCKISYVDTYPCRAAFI
Experiment: β1,3-N-acetylglucosaminyltransferase activity of cell extract of Namalwa cells transfected with pAMo-G6, 2-aminobenzamide-labeled oligosaccharide substrates
Assay type: biochemical
Conditions: cell extract (20 μg protein) of pAMo-G6-transfected Namalwa cells; 2-aminobenzamide-labeled substrate; 37° C., 16 hours
Procedure: The transformant cells (about 2×10^7 cells) obtained in Example 6(1) were put into a microtube (1.5 ml: manufactured by Eppendorf), and the cells were collected by centrifugation (550×g, 7 minutes). The cells were washed with 0.9 ml of PBS, the washed cells were suspended in a solution (100 μl) containing 20 mmol/l HEPES (pH 7.2) and 2% Triton X-100 and then the cells were disrupted using a sonicator (Bioruptor; manufactured by COSMO BIO). After the mixture was allowed to stand at 4° C. for 1 hour, the supernatant was obtained by centrifugation (550×g, 7 minutes). The supernatant was used as an enzyme sample.
A β1,3-N-acetylglucosaminyltransferase activity was measured by using this enzyme sample and 2-aminobenzamide-labeled sugar chain substrates. […]
The activity measurement was carried out using known methods [FEBS, 462, 289 (1999), J. Biol. Chem., 269, 14730-14737 (1994), J. Biol. Chem., 267, 23507 (1992), J. Biol. Chem., 267, 2994 (1992)]. Specifically, the reaction was carried out at 37° C. for 16 hours in 20 μl of an assay solution [150 mmol/l MOPS (pH 7.5), 50 mmol/l UDP-GlcNAc (manufactured by SIGMA), 20 mmol/l sodium cacodylate (pH 7.2), 0.4% Triton CF-54, 10 mmol/l MnCl2, 15 mmol/l 2-aminobenzamide-labeled sugar chain substrate, the above cell extract (20 μg as protein)], and then the product was detected by high performance liquid chromatography (HPLC). […]

ratio of the substrate converted into the product [%]	Structure (SMILES)
6.11	CC(=O)N[C@H]1[C@H](O[C@H]2[C@@H](O)[C@@H](CO)O[C@@H](O[C@H]3[C@H](O)[C@@H](O)C(O)O[C@@H]3CO)[C@@H]2O)O[C@H](CO)[C@@H](O[C@@H]2O[C@H](CO)[C@H](O)[C@H](O)[C@H]2O)[C@@H]1O (mixture of isomers) [LNnT, lacto-N-neotetraose]
3.95	CC(=O)N[C@H]1[C@H](O[C@H]2[C@@H](O)[C@@H](CO)O[C@@H](O[C@H]3[C@H](O)[C@@H](NC(C)=O)C(O)O[C@@H]3CO)[C@@H]2O)O[C@H](CO)[C@@H](O[C@@H]2O[C@H](CO)[C@H](O)[C@H](O)[C@H]2O)[C@@H]1O (some centres unmarked) [2LN, Galβ1-4GlcNAcβ1-3Galβ1-4GlcNAc]
